Results published in US10538555B2, “Macrocyclic inhibitors of the PD-1/PD-L1 and CD80(B7-1)/PD-L1 protein/protein interactions” (BRISTOL-MYERS SQUIBB COMPANY, priority 2014, dated 2020).
Where a SMILES comes first, the peptide text is derived from it. Bridges are numbered along the chain shown (N, C = ends). [ ]: non-standard residue; d: D form. Hyp = O=C(O)[C@@H]1C[C@@H](O)CN1; NMeNle = CCCC[C@H](NC)C(=O)O; NMeA = CN[C@@H](C)C(=O)O; Orn = NCCC[C@H](N)C(=O)O; Dab = NCC[C@H](N)C(=O)O; Dap = NC[C@H](N)C(=O)O

target: T1, Human PD-L1/PD-1 (Homo sapiens, UniProt Q9NZQ7); assay: HTRF Human PD-L1/PD-1 binding assay (PD-1-Ig/PD-L1-His); conditions: PD-L1-His 10 nM, PD-1-Ig 20 nM; class symbol; read-out: HTRF Human PD-L1/PD-1 Binding Assay IC50 Range
T1 construct: TVMV protease cleavage site (C); made in house; host or cells: HEK293T cells
Outline: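 Step 1: compound with PD-L1-His (10 nM final), 15 min. Step 2: PD-1-Ig (20 nM final), 15 min. Step 3: Eu-cryptate anti-Ig (1 nM) plus APC anti-His (20 nM), 30 min equilibration. Signal taken as 665 nm/620 nm ratio.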

T1 sequence (Q9NZQ7 with tags, fused parts or gaps): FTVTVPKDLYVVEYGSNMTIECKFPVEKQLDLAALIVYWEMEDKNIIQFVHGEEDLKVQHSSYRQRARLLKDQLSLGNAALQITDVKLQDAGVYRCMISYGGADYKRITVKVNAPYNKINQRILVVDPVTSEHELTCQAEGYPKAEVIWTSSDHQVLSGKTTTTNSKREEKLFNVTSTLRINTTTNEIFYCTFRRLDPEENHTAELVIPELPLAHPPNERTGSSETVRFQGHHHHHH

**Q.** With `CCCC[C@H]1C(=O)N(C)[C@@H](CCCC)C(=O)N[C@@H](CCCN)C(=O)N[C@H](C(=O)NCC(N)=O)CSCC(=O)N[C@@H](Cc2ccc(OC)cc2)C(=O)N(C)[C@@H](C)C(=O)N[C@@H](CCN)C(=O)N2CCC[C@H]2C(=O)N[C@@H](Cc2cnc[nH]2)C(=O)N[C@@H](CCCCN)C(=O)N2C[C@H](O)C[C@H]2C(=O)N[C@@H](Cc2c[nH]c3ccccc23)C(=O)N[C@@H](CCN)C(=O)N[C@@H](Cc2c[nH]c3ccccc23)C(=O)N1C` [Example 7095] ({CH2CO}-Y(Me)[NMeA][Dab]PHK[Hyp]W[Dab]W[NMeNle][NMeNle][Orn]CG-NH2; thioether N-14) as the compound, how does the IC50 read?
**A.** 1 to 9.9 nM

**Q.** For `CCCC[C@H]1C(=O)N(C)[C@@H](CCCC)C(=O)N[C@@H](CCCN)C(=O)N[C@H](C(=O)NCC(N)=O)CSCC(=O)N[C@@H](Cc2ccc(OC)cc2)C(=O)N(C)[C@@H](C)C(=O)N[C@@H](CC(N)=O)C(=O)N2CCC[C@H]2C(=O)N[C@@H](Cc2cnc[nH]2)C(=O)N[C@@H](CCC(=O)O)C(=O)N2C[C@H](O)C[C@H]2C(=O)N[C@@H](Cc2c[nH]c3ccccc23)C(=O)N[C@@H](CC(=O)O)C(=O)N[C@@H](Cc2c[nH]c3ccccc23)C(=O)N1C` [Example 7097] ({CH2CO}-Y(Me)[NMeA]NPHE[Hyp]WDW[NMeNle][NMeNle][Orn]CG-NH2; thioether N-14), which IC50 is on record?
**A.** 1 to 9.9 nM

**Q.** How did the IC50 turn out when `CCCC[C@H]1C(=O)N(C)[C@@H](CCCC)C(=O)N[C@@H](CCCN)C(=O)N[C@H](C(=O)NCC(N)=O)CSCC(=O)N[C@@H](Cc2ccc(OC)cc2)C(=O)N(C)[C@@H](C)C(=O)N[C@@H](CC(=O)O)C(=O)N2CCC[C@H]2C(=O)N[C@@H](Cc2cnc[nH]2)C(=O)N[C@@H](CCC(=O)O)C(=O)N2C[C@H](O)C[C@H]2C(=O)N[C@@H](Cc2c[nH]c3ccccc23)C(=O)N[C@@H](CCN)C(=O)N[C@@H](Cc2c[nH]c3ccccc23)C(=O)N1C` [Example 7098] ({CH2CO}-Y(Me)[NMeA]DPHE[Hyp]W[Dab]W[NMeNle][NMeNle][Orn]CG-NH2; thioether N-14) was run?
**A.** 1 to 9.9 nM

**Q.** For `CCCC[C@H]1C(=O)N(C)[C@@H](CCCC)C(=O)N[C@@H](CCCN)C(=O)N[C@H](C(=O)NCC(N)=O)CSCC(=O)N[C@@H](Cc2ccc(OC)cc2)C(=O)N(C)[C@@H](C)C(=O)N[C@@H](CC(=O)O)C(=O)N2CCC[C@H]2C(=O)N[C@@H](Cc2cnc[nH]2)C(=O)N[C@@H](CCC(=O)O)C(=O)N2C[C@H](O)C[C@H]2C(=O)N[C@@H](Cc2c[nH]c3ccccc23)C(=O)N[C@@H](CC(=O)O)C(=O)N[C@@H](Cc2c[nH]c3ccccc23)C(=O)N1C` [Example 7099] ({CH2CO}-Y(Me)[NMeA]DPHE[Hyp]WDW[NMeNle][NMeNle][Orn]CG-NH2; thioether N-14), which IC50 is on record?
**A.** 10 to 99.9 nM

**Q.** How did the IC50 turn out when `CCCC[C@H]1C(=O)N(C)[C@@H](CCCC)C(=O)N[C@@H](CCCN)C(=O)N[C@H](C(=O)NCC(N)=O)CSCC(=O)N[C@@H](Cc2ccc(OC)cc2)C(=O)N(C)[C@@H](C)C(=O)N[C@@H](CC(N)=O)C(=O)N2CCC[C@H]2C(=O)N[C@@H](CN)C(=O)N[C@@H](CCC(=O)O)C(=O)N2C[C@H](O)C[C@H]2C(=O)N[C@@H](Cc2c[nH]c3ccccc23)C(=O)N[C@@H](CC(=O)O)C(=O)N[C@@H](Cc2c[nH]c3ccccc23)C(=O)N1C` [Example 7100] ({CH2CO}-Y(Me)[NMeA]NP[Dap]E[Hyp]WDW[NMeNle][NMeNle][Orn]CG-NH2; thioether N-14) was run?
**A.** 1 to 9.9 nM

**Q.** For `CCCC[C@H]1C(=O)N(C)[C@@H](CCCC)C(=O)N[C@@H](CCCN)C(=O)N[C@H](C(=O)NCC(N)=O)CSCC(=O)N[C@@H](Cc2ccc(OC)cc2)C(=O)N(C)[C@@H](C)C(=O)N[C@@H](CC(=O)O)C(=O)N2CCC[C@H]2C(=O)N[C@@H](CN)C(=O)N[C@@H](CCC(=O)O)C(=O)N2C[C@H](O)C[C@H]2C(=O)N[C@@H](Cc2c[nH]c3ccccc23)C(=O)N[C@@H](CC(=O)O)C(=O)N[C@@H](Cc2c[nH]c3ccccc23)C(=O)N1C` [Example 7101] ({CH2CO}-Y(Me)[NMeA]DP[Dap]E[Hyp]WDW[NMeNle][NMeNle][Orn]CG-NH2; thioether N-14), which IC50 is on record?
**A.** 1 to 9.9 nM

**Q.** How did the IC50 turn out when `CCCC[C@H]1C(=O)N(C)[C@@H](CCCC)C(=O)N[C@@H](CCCN)C(=O)N[C@H](C(=O)NCC(N)=O)CSCC(=O)N[C@@H](Cc2ccc(OC)cc2)C(=O)N(C)[C@@H](C)C(=O)N[C@@H](CCN)C(=O)N2CCC[C@H]2C(=O)N[C@@H](CN)C(=O)N[C@@H](CCCCN)C(=O)N2C[C@H](O)C[C@H]2C(=O)N[C@@H](Cc2c[nH]c3ccccc23)C(=O)N[C@@H](CCN)C(=O)N[C@@H](Cc2c[nH]c3ccccc23)C(=O)N1C` [Example 7103] ({CH2CO}-Y(Me)[NMeA][Dab]P[Dap]K[Hyp]W[Dab]W[NMeNle][NMeNle][Orn]CG-NH2; thioether N-14) was run?
**A.** 10 to 99.9 nM

**Q.** Which IC50 does the source give for `CCCC[C@H]1C(=O)N(C)[C@@H](CCCC)C(=O)N[C@@H](CCCN)C(=O)N[C@H](C(=O)NCC(N)=O)CSCC(=O)N[C@@H](Cc2ccc(OC)cc2)C(=O)N(C)[C@@H](C)C(=O)N[C@@H](CCN)C(=O)N2CCC[C@H]2C(=O)N[C@@H](Cc2cnc[nH]2)C(=O)N[C@@H](CCC(=O)O)C(=O)N2C[C@H](O)C[C@H]2C(=O)N[C@@H](Cc2c[nH]c3ccccc23)C(=O)N[C@@H](CC(=O)O)C(=O)N[C@@H](Cc2c[nH]c3ccccc23)C(=O)N1C` [Example 7104] ({CH2CO}-Y(Me)[NMeA][Dab]PHE[Hyp]WDW[NMeNle][NMeNle][Orn]CG-NH2; thioether N-14) here?
**A.** 10 to 99.9 nM

**Q.** `CCCC[C@H]1C(=O)N(C)[C@@H](CCCC)C(=O)N[C@@H](CCCN)C(=O)N[C@H](C(=O)NCC(N)=O)CSCC(=O)N[C@@H](Cc2ccc(OC)cc2)C(=O)N(C)[C@@H](C)C(=O)N[C@@H](CCN)C(=O)N2CCC[C@H]2C(=O)N[C@@H](CN)C(=O)N[C@@H](CCC(=O)O)C(=O)N2C[C@H](O)C[C@H]2C(=O)N[C@@H](Cc2c[nH]c3ccccc23)C(=O)N[C@@H](CC(=O)O)C(=O)N[C@@H](Cc2c[nH]c3ccccc23)C(=O)N1C` [Example 7105] ({CH2CO}-Y(Me)[NMeA][Dab]P[Dap]E[Hyp]WDW[NMeNle][NMeNle][Orn]CG-NH2; thioether N-14) was tested. Which IC50 did it give?
**A.** 10 to 99.9 nM

**Q.** `CCCC[C@H]1C(=O)N(C)[C@@H](CCCC)C(=O)N[C@@H](CCCN)C(=O)N[C@H](C(=O)NCC(N)=O)CSCC(=O)N[C@@H](Cc2ccc(OC)cc2)C(=O)N(C)[C@@H](C)C(=O)N[C@@H](CC(=O)O)C(=O)N2CCC[C@H]2C(=O)N[C@@H](Cc2cnc[nH]2)C(=O)N[C@@H](CCCCN)C(=O)N2C[C@H](O)C[C@H]2C(=O)N[C@@H](Cc2c[nH]c3ccccc23)C(=O)N[C@@H](CC(=O)O)C(=O)N[C@@H](Cc2c[nH]c3ccccc23)C(=O)N1C` [Example 7106] ({CH2CO}-Y(Me)[NMeA]DPHK[Hyp]WDW[NMeNle][NMeNle][Orn]CG-NH2; thioether N-14) was tested. Which IC50 did it give?
**A.** 1 to 9.9 nM

**Q.** Which IC50 does the source give for `CCCC[C@H]1C(=O)N(C)[C@@H](CCCC)C(=O)N[C@@H](CCCN)C(=O)N[C@H](C(=O)NCC(N)=O)CSCC(=O)N[C@@H](Cc2ccc(OC)cc2)C(=O)N(C)[C@@H](C)C(=O)N[C@@H](CC(N)=O)C(=O)N2CCC[C@H]2C(=O)N[C@@H](CN)C(=O)N[C@@H](CCCCN)C(=O)N2C[C@H](O)C[C@H]2C(=O)N[C@@H](Cc2c[nH]c3ccccc23)C(=O)N[C@@H](CC(=O)O)C(=O)N[C@@H](Cc2c[nH]c3ccccc23)C(=O)N1C` [Example 7108] ({CH2CO}-Y(Me)[NMeA]NP[Dap]K[Hyp]WDW[NMeNle][NMeNle][Orn]CG-NH2; thioether N-14) here?
**A.** 1 to 9.9 nM

**Q.** For `CCCC[C@H]1C(=O)N(C)[C@@H](CCCC)C(=O)N[C@@H](CCC(=O)O)C(=O)N[C@H](C(=O)NCC(N)=O)CSCC(=O)N[C@@H](Cc2ccc(OC)cc2)C(=O)N(C)[C@@H](C)C(=O)N[C@@H](CC(N)=O)C(=O)N2CCC[C@H]2C(=O)N[C@@H](Cc2cnc[nH]2)C(=O)N[C@@H](CCC(=O)O)C(=O)N2C[C@H](O)C[C@H]2C(=O)N[C@@H](Cc2c[nH]c3ccccc23)C(=O)N[C@@H](CCN)C(=O)N[C@@H](Cc2c[nH]c3ccccc23)C(=O)N1C` [Example 7109] ({CH2CO}-Y(Me)[NMeA]NPHE[Hyp]W[Dab]W[NMeNle][NMeNle]ECG-NH2; thioether N-14), which IC50 is on record?
**A.** 1 to 9.9 nM

**Q.** `CCCC[C@H]1C(=O)N(C)[C@@H](CCCC)C(=O)N[C@@H](CCC(=O)O)C(=O)N[C@H](C(=O)NCC(N)=O)CSCC(=O)N[C@@H](Cc2ccc(OC)cc2)C(=O)N(C)[C@@H](C)C(=O)N[C@@H](CC(=O)O)C(=O)N2CCC[C@H]2C(=O)N[C@@H](Cc2cnc[nH]2)C(=O)N[C@@H](CCC(=O)O)C(=O)N2C[C@H](O)C[C@H]2C(=O)N[C@@H](Cc2c[nH]c3ccccc23)C(=O)N[C@@H](CCN)C(=O)N[C@@H](Cc2c[nH]c3ccccc23)C(=O)N1C` [Example 7110] ({CH2CO}-Y(Me)[NMeA]DPHE[Hyp]W[Dab]W[NMeNle][NMeNle]ECG-NH2; thioether N-14) was tested. Which IC50 did it give?
**A.** 1 to 9.9 nM

**Q.** With `CCCC[C@H]1C(=O)N(C)[C@@H](CCCC)C(=O)N[C@@H](CCC(=O)O)C(=O)N[C@H](C(=O)NCC(N)=O)CSCC(=O)N[C@@H](Cc2ccc(OC)cc2)C(=O)N(C)[C@@H](C)C(=O)N[C@@H](CCN)C(=O)N2CCC[C@H]2C(=O)N[C@@H](Cc2cnc[nH]2)C(=O)N[C@@H](CCC(=O)O)C(=O)N2C[C@H](O)C[C@H]2C(=O)N[C@@H](Cc2c[nH]c3ccccc23)C(=O)N[C@@H](CCN)C(=O)N[C@@H](Cc2c[nH]c3ccccc23)C(=O)N1C` [Example 7111] ({CH2CO}-Y(Me)[NMeA][Dab]PHE[Hyp]W[Dab]W[NMeNle][NMeNle]ECG-NH2; thioether N-14) as the compound, how does the IC50 read?
**A.** 1 to 9.9 nM

same assay, conditions: PD-L1-His 10 nM, PD-1-Ig 20 nM; read-out: HTRF Human PD-L1/PD-1 Binding Assay IC50

**Q.** `CCCC[C@H]1C(=O)N(C)[C@@H](CCCC)C(=O)N[C@@H](CCCN)C(=O)N[C@H](C(=O)NCC(N)=O)CSCC(=O)N[C@@H](Cc2ccc(OC)cc2)C(=O)N(C)[C@@H](C)C(=O)N[C@@H](CCN)C(=O)N2CCC[C@H]2C(=O)N[C@@H](Cc2cnc[nH]2)C(=O)N[C@@H](CCCCN)C(=O)N2C[C@H](O)C[C@H]2C(=O)N[C@@H](Cc2c[nH]c3ccccc23)C(=O)N[C@@H](CC(=O)O)C(=O)N[C@@H](Cc2c[nH]c3ccccc23)C(=O)N1C` [Example 7107] ({CH2CO}-Y(Me)[NMeA][Dab]PHK[Hyp]WDW[NMeNle][NMeNle][Orn]CG-NH2; thioether N-14) was tested. Which IC50 did it give?
**A.** 304 nM
